What all share (experiment): DTP human tumour cell line panel, 48 h
In assay [1] the test system is SW-620.
Assay [2] has as its system HL-60.
Assay [3] deals with UACC-62.
Assay [4] concerns Malme-3M.
The test system of assay [5] is RPMI-8226.
Assay [6] concerns IGROV-1.
For assay [7], the system named is SK-MEL-5.
Assay [8] concerns A549.
Assay [9] has as its system HCT-116.
Assay [10] deals with CCRF-CEM.
The test system of assay [11] is MOLT-4.
Assay [12] has as its system UACC-257.
For assay [13], the system named is SF-295.
In assay [14] the test system is SNB-19.
In assay [15] the test system is HCT-15.
The test system of assay [16] is SN12C.
Assay [17] concerns SK-MEL-2.
In assay [18] the test system is HOP-62.
Assay [19] relates to KM12.
Assay [20] deals with MCF7.

Molecules are shown by their SMILES.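 Protocol summary: plate cells (96-well), add compound at 5 concentrations, incubate 48 h, interpolate endpoints linearly. At the GI50, growth is halved.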 Active and inactive are the calls of the source. Rule as the data show it: active = GI50 up to about 1.1 µM and inactive = higher.

As usually defined, the GI50 is the concentration giving 50% growth inhibition.

With `CCOC(=O)c1ncoc1[C@H]1COC(C)(C)O1`, the GI50 in assay [1], in [2], in [3], in assay [4], in [5] and in assay [6] was > 100 µM (inactive) throughout. Also, the GI50 in [7], in assay [8], in assay [9], in [10], in [11] and in [12] was > 100 µM (inactive) each time. Besides, the GI50 is > 100 µM (inactive) in assay [13]; > 100 µM (inactive) in assay [14]; more than 100 µM in assay [15]; > 100 µM (inactive) in assay [16]; > 100 µM (inactive) in [17]; > 100 µM (inactive) in [18].

In the case of `CCOC1=NC(C(F)(F)F)(C(F)(F)F)N=C(N2CCOCC2)O1`, the GI50 in assay [1] is > 100 µM (inactive); in [2], 89.5 µM (inactive); in assay [3] it was 24 µM (inactive); in [5], > 100 µM (inactive); in assay [6], > 100 µM (inactive); in assay [7] it was > 100 µM (inactive). For the same compound, the GI50 in assay [8], in [9], in [10], in assay [11], in [12] and in assay [13] was > 100 µM (inactive) throughout. Further, the GI50 in assay [14] is > 100 µM (inactive); in [15], more than 100 µM; in [16] it was > 100 µM (inactive); in [17] it was > 100 µM (inactive); in assay [19] it was > 100 µM (inactive); in assay [20], > 100 µM (inactive).

Regarding `O=C1c2cc3c(cc2[C@@H]2C(O)[C@H]4O[C@H]4C4CCN1C42)OCO3` (stereo not given in full), the GI50 in [1], in [2], in [3], in [4], in assay [5] and in assay [6] was > 37.5 µM (inactive) throughout. Moreover, the GI50 in assay [8], in assay [9], in assay [10], in [11], in assay [13] and in assay [14] was > 37.5 µM (inactive) in each case. For the same compound, the GI50 in assay [15] was more than 37.5 µM; in assay [16], > 37.5 µM (inactive); in assay [17], > 37.5 µM (inactive); in assay [19] it was > 37.5 µM (inactive); in assay [18], > 37.5 µM (inactive).

As to `Cc1ccc(NC(=O)CC/C(CC(=O)C(C)(C)C)=N/NC(=O)c2cc3ccccc3cc2O)cc1C`, the GI50 in assay [1] was 48 µM (inactive); in assay [2], 20.4 µM (inactive); in [3], 24.5 µM (inactive); in assay [4], 35.2 µM (inactive); in [6] it was 32.8 µM (inactive); in assay [9], 40.3 µM (inactive). In addition, the GI50 was 16.2 µM (inactive) in [10]; 17.7 µM (inactive) in assay [11]; 38.1 µM (inactive) in assay [12]; 17.9 µM (inactive) in [13]; 39.5 µM (inactive) in assay [14]; 27.7 µM in assay [15]. Besides, the GI50 was 33.6 µM (inactive) in assay [16], 32.4 µM (inactive) in assay [17], 36.6 µM (inactive) in assay [19] and 36.8 µM (inactive) in [18].

For the compound `COc1cccc(N2C(=O)CSC2c2c[nH]c3ccccc23)c1` (stereo not given), the GI50 in assay [1], in assay [2], in assay [3], in [6], in assay [7] and in assay [9] was > 100 µM (inactive) throughout. Further, the GI50 in assay [10] was > 100 µM (inactive); in assay [11] it was > 100 µM (inactive); in assay [12], > 100 µM (inactive); in [13] it was > 100 µM (inactive); in assay [14], > 100 µM (inactive); in assay [15] it was more than 100 µM. Moreover, the GI50 in assay [16], in assay [19], in assay [20] and in assay [18] was > 100 µM (inactive) in each case.

The values are drawn from ChEMBL document CHEMBL1201862, “PubChem BioAssay data set” (2004).
